Test results reported in ChEMBL document CHEMBL1157539, “Thousands of chemical starting points for antimalarial lead identification” (Nature, 2010).

Tested on: Plasmodium falciparum
Assay: GSK_TCMDC: Inhibition of Plasmodium falciparum 3D7 in whole erythrocytes, using parasite LDH activity as an index of growth.
Type: functional, organism-based

| Structure (SMILES) | XC50 (Plasmodium falciparum, 3D7) | XC50 |
| --- | --- | --- |
| N=C(N)NN=CC(=O)Nc1cccc(C(F)(F)F)c1 | 1000 nM |  |
| CS(=O)(=O)CCCNCc1ccc(-c2cc3c(Nc4ccc(OCc5ccccc5)cc4)ncnc3cn2)o1 | 650 nM |  |
| CCN(CC)CCN(Cc1ccc(-c2ccc(Br)cc2)cc1)C(=O)Cn1c(CCc2cccc(F)c2F)nc(=O)c2ccccc21 | 788 nM |  |
| c1cc(CNCCc2ccncc2)cc(-c2ccc(-c3nc4ccccc4[nH]3)cc2)c1 | 146 nM |  |
| O=C1CSc2ccc(CNC3CCN(CCc4c(F)cnc5ccc(F)cc45)CC3)nc2N1 | 525 nM |  |
| N=C(N)c1ccc(Nc2nccc(Nc3nc(-c4ccccc4)cs3)n2)cc1 | 754 nM |  |
| COc1cc2nc(N3CCC(CNC(=O)c4ccc(-c5cccc(C#N)c5)cc4)CC3)nc(N)c2cc1OC | 139 nM |  |
| FC(F)(F)c1ccc2[nH]c(-c3ccc(-c4ccc(CN5CCN(c6cnccn6)CC5)cc4)cc3)nc2c1 | 687 nM |  |
| CCC(C)NS(=O)(=O)c1ccc2nc(Nc3ccc(C)cc3)n(C3CCCCC3)c2c1 (configuration not stated) | 462 nM |  |
| Cc1cccnc1CNc1nccc2c(C)c(C)[nH]c12 | 849 nM |  |
| c1cc(CNCC2CCCO2)cc(-c2ccc(-c3nc4ccccc4[nH]3)s2)c1 (configuration not stated) | 1170 nM |  |
| CCC(CC)(Cc1ccccc1)NC(=O)[C@H](CC(C)C)Nc1ccc(C#N)c2ccccc12 | 913 nM |  |
| Cc1ccc(NC(=O)Nc2cccc(Cl)c2)cc1-c1ccc(C(=O)Nc2ccncc2)cc1 | 738 nM |  |
| CCNc1cc(C)nc(Nc2ccccc2)n1 | 883 nM |  |
| CCOC(=O)C1=C(C)NC2=C(C(=O)C(C(=O)OC)C(C)C2)C1c1cc(Br)c(OCC)c(OC)c1 (configuration not stated) | 701 nM |  |
| COc1cc(NC(=O)c2ccc(-c3ccc(C(C)=O)cc3)s2)ccc1OCCN1CCCC1 | 147 nM |  |
| CCOc1ccc(Nc2nc(N)c3ccccc3n2)cc1 | 1150 nM |  |
| CCc1cc(NCc2ccncc2)nc(Nc2ccc(F)cc2)n1 | 1330 nM |  |
| COCCN1CCN(Cc2ccc(-c3ccc(-c4nc5cccc(C)c5[nH]4)s3)cc2)CC1 | 859 nM |  |
| O=C(Nc1ccc(-c2nc3ccccc3[nH]2)cc1)c1ccc([N+](=O)[O-])s1 | 252 nM |  |
| Cc1cc(=O)oc2c1ccc1oc(C(O)c3ccc(Cl)cc3)c(C)c12 (configuration not stated) | 130 nM |  |
| Cc1ccccc1C1CCN(C2CCC(NC(=O)c3ccc4c(c3)-c3nocc3C(C)O4)CC2)CC1 (configuration not stated) | 1270 nM |  |

| Structure (SMILES) | XC50 (Plasmodium falciparum, 3D7) | XC50 |
| --- | --- | --- |
| O=C(NC1CCCCC1)N(Cc1ccc(-c2ccc(CNCc3ccc4c(c3)OCO4)cc2)cc1)C1CCN(Cc2ccccc2)CC1 | 690 nM |  |
| O=C(Nc1ccc(Cl)cc1)Nc1cccc(-c2cccc(-c3nc4ccccc4[nH]3)c2)c1 | 131 nM |  |
| Cc1[nH]c(C)c(-c2ccc(-c3ccc(C#N)cc3)nc2)c(=O)c1Br | 981 nM |  |
| CCc1cc(Br)c2c(c1)C(NCCCNc1cc(=O)c3ccccc3[nH]1)CCN2 (configuration not stated) | 852 nM |  |
| Cc1c(CNCCCNc2nc3ccncc3[nH]2)sc(Br)c1Br | 1040 nM |  |
| O=C(NCc1ccc(Cl)cc1)c1ccc(CN2CCCN(Cc3cccc(O)c3)CC2)cc1 | 1170 nM |  |
| COc1ccc2c(c1)Nc1ccc(Cl)cc1C2N (configuration not stated) | 303 nM |  |
| COc1ccc(-c2ccc(CNC(=O)c3ccc(Cl)cc3)c(F)c2)cc1CN1CCCN(C)CC1 | 705 nM |  |
| CC1(C)NC(N)=NC(=N)N1OCCCOc1cc(Cl)ccc1Cl | 3.2 nM |  |
| COc1ccc(CN(C)CCCc2ccc(NC(=O)Cc3ccc4nc(-c5ccccc5)ccc4c3)cc2)cc1OC | 534 nM |  |
| CC(=O)N[C@H](C(=O)Nc1ccc(-c2ccc(-c3nc4cc(C(F)(F)F)ccc4[nH]3)s2)cc1)C(C)C | 1030 nM |  |
| CC(=O)OC[C@H]1O[C@@H](C#Cc2ccccc2)[C@H](OC(C)=O)[C@@H](OC(C)=O)[C@@H]1OC(C)=O | 283 nM |  |
| O=C(/C=C/c1ccc(Cl)c(Cl)c1)NCCCCCN1CCCC(CNS(=O)(=O)c2cccc(C(F)(F)F)c2)C1 (configuration not stated) | 950 nM |  |
| O=C(Nc1cc(Cl)cc(Cl)c1)Nc1ccnc2ccccc12 | 745 nM |  |
| COc1ccc(-c2ccc(S(=O)(=O)Nc3cc4c(cc3OC(C)C)CCNCC4)cc2)cc1 | 969 nM |  |
| C=Cc1cc(NC(=O)N2CCc3cc(OC)c(C(F)(F)F)cc32)cc(-c2cccnc2)c1 | 702 nM |  |
| Nc1ncc(-c2ccc(F)cc2)cc1-c1nc2ccc(Cl)cc2[nH]1 | 753 nM |  |
| Cc1ccc(-c2csc(C)n2)c(C)c1 | 991 nM |  |
| COc1ccc2nccc(N3CCC(NCc4ccc5c(n4)NC(=O)CS5)CC3)c2n1 | 860 nM |  |
| COc1ccc(-c2csc(NC(=O)CCC(=O)O)n2)cc1OC | 842 nM |  |
| O=C(Nc1ccc(-c2ccc(-c3nc4cc(C(F)(F)F)ccc4[nH]3)cc2)cc1)Nc1ccc(F)c(F)c1F | 217 nM |  |
| COc1ccccc1NC(=O)Nc1ccc(-c2ccc(-c3nc4cccc(C)c4[nH]3)s2)cc1 | 158 nM |  |

| Structure (SMILES) | XC50 (Plasmodium falciparum, 3D7) | XC50 |
| --- | --- | --- |
| CCCN(CCC)CCCNc1ccc(C(=O)Nc2ccc(C)c(F)c2)cc1[N+](=O)[O-] | 539 nM |  |
| O=C(NCCCCN1CCC(c2ccc3ccccc3c2O)CC1)c1ccc(-c2ccc(Cl)cc2)cc1 | 181 nM |  |
| CN(C)Cc1ccc2cc(NC(=O)c3ccc(-c4ccc(Cl)cc4)cc3)ccc2n1 | 849 nM |  |
| COc1cc2c(cc1S(=O)(=O)c1ccc(COc3ccc(C(F)(F)F)cc3)cc1)CNCC2 | 746 nM |  |
| CCCNC(=O)c1ccnc(-c2ccc(CNC3Cc4ccccc4C3)cc2)c1 | 940 nM |  |
| Cc1nc(C)c(-c2ccc(Oc3ccc(OC(F)(F)F)cc3)cc2)c(OC(=O)c2ccc(CN(C)C)cc2)c1Cl | 137 nM |  |
| O=C(/C=C/c1ccc(Cl)c(Cl)c1)NCCCCCN1CCC(C(=O)Nc2ccc(F)c(Cl)c2)CC1 | 647 nM |  |
| CC1CN(c2ccc(C(=O)NCC3CC3)cc2NC(=O)OCc2ccccc2)CC(C)O1 (configuration not stated) | 1300 nM |  |
| CS(=O)(=O)CCNc1cc(N2CCc3ncnc(Nc4ccc(OCc5cccc(F)c5)c(Cl)c4)c3C2)ncn1 | 873 nM |  |
| Cc1cc2nc(-c3ccc(C(=O)NCc4ccc(Cl)c(Cl)c4)cc3)[nH]c2cc1C | 828 nM |  |
| N=C(N)NC(=O)Nc1cc(F)c(Cl)c(Cl)c1 | 505 nM |  |
| Brc1ccc(Nc2ccnc3cc(-c4nccs4)ccc23)cc1Oc1ccnc2cc(-c3nccs3)ccc12 | 1060 nM |  |
| Cn1cnnc1Sc1ccc(CN2CCOc3ccc(C4=CCCCC4)cc3C2)o1 | 849 nM |  |
| COc1cc2nc(N3CCC(NC(=O)c4cccc(N(C)C)c4)CC3)nc(N)c2cc1OC | 614 nM |  |
| Cc1ccc(C(c2nnnn2C2CCCC2)N(Cc2ccco2)Cc2ccccc2Cl)cc1 (configuration not stated) | 959 nM |  |
| Cc1ccc(F)c(C(=O)Nc2cccc(-c3nn4ccccc4c3-c3ccnc(Nc4cccc(F)c4)n3)c2)c1F | 1050 nM |  |
| CCOc1cc(C)ccc1C1CCN(CCCCNC(=O)c2coc(-c3ccc(Cl)cc3)c2)CC1 | 914 nM |  |
| Nc1nc(-c2ccccn2)nc(-n2nc(-c3cccc(C(F)(F)F)c3)cc2N)n1 | 1040 nM |  |
| CCc1ccc(-c2nc3cc(NC(=O)c4ccc([N+](=O)[O-])o4)ccc3o2)cc1 | 250 nM |  |
| COc1ccc(NC(=O)/C=C/c2ccc(-c3ccccc3)cc2)cc1N1CCN(C)CC1 | 906 nM |  |
| COc1ccc(CCNCc2ccc3nc(N)cc(C)c3c2)cc1 | 214 nM |  |
| COc1ccccc1CCNC(=O)c1cc(Br)cc(N2CCN(c3ccncc3)CC2)c1 | 1270 nM |  |

| Structure (SMILES) | XC50 (Plasmodium falciparum, 3D7) | XC50 |
| --- | --- | --- |
| CCCCCCCN1CC[C@@H](CCCc2ccnc3ccc(OCCN4CCOCC4)cc23)[C@@H](CC)C1 | 909 nM |  |
| Fc1ccc(-c2nc(NCc3cccc(C(F)(F)F)c3)nn2-c2cccc(C(F)(F)F)c2)cc1C(F)(F)F | 1050 nM |  |
| CC(C)CNCc1cccc(-c2ccccc2CNC2CCN(Cc3ccccc3)CC2)c1 | 579 nM |  |
| O=C(Nc1cccc(-c2nn3ccccc3c2-c2ccnc(Nc3cccc(F)c3)n2)c1)c1c(F)ccc(F)c1Cl | 1140 nM |  |
| CC(C)(C)c1ccc(NC(=O)c2ccc(CN3CCCN(Cc4cccc(C#N)c4)CC3)cc2)cc1 | 641 nM |  |
| CC[C@H]1CN2CCc3cc(OC)c(OC)cc3[C@@H]2C[C@@H]1C[C@H]1NCCc2c1cc(OC)c(OC)c2Br | 650 nM |  |
| O=C(/C=C/c1ccccc1O)N1CCC(CCN2CCC(c3c[nH]c4ccccc34)CC2)CC1 | 1340 nM |  |
| O=C(Cc1c[nH]cn1)Nc1cccc(-c2cccc(-c3nc4cc(F)ccc4[nH]3)c2)c1 | 777 nM |  |
| COc1ccc(C(=O)CCC(=O)N(Cc2ccc(-c3ccc(CNCCc4ccc(S(C)(=O)=O)cc4)cn3)cc2)C2CC3CCC2C3)cc1F (configuration not stated) | 927 nM |  |
| OC(CNc1ccnc(Nc2cccc(OCCCN3CCOCC3)c2)n1)c1ccccc1 (configuration not stated) | 924 nM |  |
| CCOc1ccccc1C(=O)N1CCc2cc3nccc(N4CCN5CCC[C@H]5C4)c3cc21 | 753 nM |  |
| COc1ccc(OC)c(CC2c3ccc(Br)c(O)c3CCN2C)c1 (configuration not stated) | 754 nM |  |
| CCN(C(=O)c1ccc(NC(=O)c2cccs2)cc1)c1nc2c(C)cccc2s1 | 850 nM |  |
| COc1ccc(C2CC(c3cccs3)=NN2C(=O)c2ccco2)cc1OC (configuration not stated) | 172 nM |  |
| S=C(Nc1ccc2c(c1)OCCO2)NC1CCC(CN2CCC(c3c[nH]c4ccccc34)CC2)CC1 (configuration not stated) | 653 nM | 1000 nM |
| c1cc(C2=NC3CCCCC3N2)ccc1OCCCOc1ccc(C2=NC3CCCCC3N2)cc1 (configuration not stated) | 731 nM |  |
| O=C(Nc1ccccc1Oc1ccccc1)NC1CCN(c2ccnc3cc(Cl)ccc23)C1 (configuration not stated) | 167 nM |  |
| O=C(Nc1ccccc1)N(Cc1ccc(-c2ccc(CNCc3ccc4c(c3)OCO4)cc2)cc1)C1CCN(Cc2ccccc2)CC1 | 570 nM |  |
| Cc1cnc(NCCc2ccc(F)cc2)nc1N[C@@H](CC(C)C)C(=O)Nc1ccccc1 | 970 nM |  |
| CCCCCC(C)C(C)c1cc(O)c2c(c1)OC(C)(C)C=C2c1cc[n+]([O-])cc1 (configuration not stated) | 1190 nM |  |
